Converted amounts (≈) assume the structure as drawn.
Experiments:
[1] = target: T1, WT S. Typhimurium DNA gyrase (Salmonella typhimurium, UniProt P0A2I3+P37411); experiment: Fluoroquinolone-inhibited DNA supercoiling assay, WT DNA gyrase; format: biochemical; details: read-out: IC50s ± SD, WT (converted)
T1 construct: made in house; host or cells: Escherichia coli BL21(DE3)
From the text: (§1) Recombinant DNA gyrase was obtained as separate subunits, GyrA and GyrB. In total, plasmids encoding nine subunits including WT GyrA and GyrB as well as seven GyrA with amino acid substitutions (Ser83Phe, Ser83Ile, Ser83Tyr, Asp87Gly, Asp87Asn, Asp87Tyr, and […]) in the quinolone resistance determining region were constructed as described in our previous study ([38]). These plasmids were introduced into Escherichia coli BL21(DE3) (Merck KGaA, Darmstadt, Germany), and protein expression was induced in the bacterial cells. A transformed E. coli was inoculated into Luria-Bertani broth supplemented with ampicillin (50 mg/L) and incubated at 37°C until the optical density value reached 0.60. Expression of GyrA and GyrB was induced by adding 1 mM isopropyl beta-D-1-thiogalactopyranoside (Wako Pure Chemical Industries Ltd, Osaka, Japan) followed by incubation at 16°C for 40 h (for GyrA), or 18°C for 13 h (for GyrB). To release the expressed protein, E. coli cells were harvested by centrifugation, suspended in a native binding buffer containing complete mini EDTA-free (Roche Applied Science, Mannheim, Germany), and then sonicated at a 30% duty cycle with 10 cycles of 40 s on and 40 s off (Sonifier 250; Branson, Danbury, CT). The recombinant DNA gyrase subunits were purified by column chromatography using Ni-NTA agarose resin (Thermo Fisher Scientific, Inc., Waltham, MA) and dialyzed against DNA gyrase dilution buffer [50 mM Tris-HCl, pH 7.5; 100 mM KCl, 2 mM dithiothreitol (DTT), 1 mM EDTA]. […] The protein purity was assessed by sodium dodecyl sulfate-polyacrylamide gel electrophoresis (SDS-PAGE) (ATTO, Tokyo, Japan) as shown in Fig. 7.
(§2) The reaction mixture was incubated at 37°C for 60 min and then the reaction was halted by adding 8 µL of stop solution (5% SDS, 25% glycerol, and 0.25 mg/mL of bromophenol blue) ([45]). […] The amount of supercoiled DNA was quantified by its intensity using ImageJ, the digital image processing software (https://imagej.nih.gov/ij/download.html).

[2] = target: T2, Ser83Ile mutant S. Typhimurium DNA gyrase (Salmonella typhimurium, UniProt P0A2I3+P37411, S83I); experiment: Fluoroquinolone-inhibited DNA supercoiling assay, GyrA Ser83Ile DNA gyrase; format: biochemical; details: read-out: IC50s ± SD, Ser83Ile (converted)
T2 construct: made in house; host or cells: Escherichia coli BL21(DE3)
T2 sequence (P37411 whole entry S83I, one chain of several): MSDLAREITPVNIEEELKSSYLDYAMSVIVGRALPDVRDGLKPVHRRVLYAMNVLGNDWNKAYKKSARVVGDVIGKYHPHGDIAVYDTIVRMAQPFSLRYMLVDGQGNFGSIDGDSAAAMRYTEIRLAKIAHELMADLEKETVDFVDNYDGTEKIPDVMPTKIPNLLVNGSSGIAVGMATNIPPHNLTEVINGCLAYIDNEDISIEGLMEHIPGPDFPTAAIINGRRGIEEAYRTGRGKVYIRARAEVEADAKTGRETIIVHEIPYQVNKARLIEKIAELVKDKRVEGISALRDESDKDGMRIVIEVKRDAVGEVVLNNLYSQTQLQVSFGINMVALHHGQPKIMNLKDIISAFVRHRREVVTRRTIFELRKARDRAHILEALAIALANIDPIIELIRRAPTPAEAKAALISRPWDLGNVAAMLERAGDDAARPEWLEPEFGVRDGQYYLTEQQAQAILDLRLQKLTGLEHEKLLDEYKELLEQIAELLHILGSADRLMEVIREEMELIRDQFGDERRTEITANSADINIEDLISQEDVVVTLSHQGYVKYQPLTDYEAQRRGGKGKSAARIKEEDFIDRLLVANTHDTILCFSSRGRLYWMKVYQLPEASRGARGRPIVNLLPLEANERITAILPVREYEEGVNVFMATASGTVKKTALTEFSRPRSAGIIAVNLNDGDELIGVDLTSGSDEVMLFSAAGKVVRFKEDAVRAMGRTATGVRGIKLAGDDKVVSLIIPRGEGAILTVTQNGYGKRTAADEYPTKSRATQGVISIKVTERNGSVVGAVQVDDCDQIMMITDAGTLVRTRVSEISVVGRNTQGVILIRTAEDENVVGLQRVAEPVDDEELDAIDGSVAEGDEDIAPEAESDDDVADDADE
From the text: as §1, §2

[3] = target: T3, Ser83Phe mutant S. Typhimurium DNA gyrase (Salmonella typhimurium, UniProt P0A2I3+P37411, S83F); experiment: Fluoroquinolone-inhibited DNA supercoiling assay, GyrA Ser83Phe DNA gyrase; format: biochemical; details: read-out: IC50s ± SD, Ser83Phe (converted)
T3 construct: made in house; host or cells: Escherichia coli BL21(DE3)
T3 sequence (P37411 whole entry S83F, one chain of several): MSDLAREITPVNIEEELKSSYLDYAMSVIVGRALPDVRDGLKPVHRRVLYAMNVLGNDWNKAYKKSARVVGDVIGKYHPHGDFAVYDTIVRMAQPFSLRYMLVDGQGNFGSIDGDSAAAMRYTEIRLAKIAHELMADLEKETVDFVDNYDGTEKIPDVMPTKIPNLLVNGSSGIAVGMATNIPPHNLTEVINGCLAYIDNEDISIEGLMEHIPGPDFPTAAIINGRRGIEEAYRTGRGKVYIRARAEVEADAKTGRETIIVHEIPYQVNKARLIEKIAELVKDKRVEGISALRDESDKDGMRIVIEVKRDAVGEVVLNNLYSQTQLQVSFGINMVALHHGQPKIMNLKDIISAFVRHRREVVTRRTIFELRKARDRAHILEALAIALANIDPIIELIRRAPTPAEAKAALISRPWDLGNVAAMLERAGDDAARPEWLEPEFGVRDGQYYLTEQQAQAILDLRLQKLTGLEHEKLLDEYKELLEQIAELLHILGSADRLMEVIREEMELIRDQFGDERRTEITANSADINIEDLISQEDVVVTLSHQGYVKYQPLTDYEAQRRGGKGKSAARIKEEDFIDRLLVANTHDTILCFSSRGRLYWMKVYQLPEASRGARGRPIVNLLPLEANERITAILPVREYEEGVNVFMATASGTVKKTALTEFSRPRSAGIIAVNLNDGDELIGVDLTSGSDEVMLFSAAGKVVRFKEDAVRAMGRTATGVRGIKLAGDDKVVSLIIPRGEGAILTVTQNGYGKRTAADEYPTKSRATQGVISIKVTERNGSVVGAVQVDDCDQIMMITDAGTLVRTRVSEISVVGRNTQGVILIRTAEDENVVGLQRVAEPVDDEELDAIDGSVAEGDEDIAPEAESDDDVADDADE
From the text: as §1, §2

[4] = target: T4, Ser83Tyr mutant S. Typhimurium DNA gyrase (Salmonella typhimurium, UniProt P0A2I3+P37411, S83Y); experiment: Fluoroquinolone-inhibited DNA supercoiling assay, GyrA Ser83Tyr DNA gyrase; format: biochemical; details: read-out: IC50s ± SD, Ser83Tyr (converted)
T4 construct: made in house; host or cells: Escherichia coli BL21(DE3)
T4 sequence (P37411 whole entry S83Y, one chain of several): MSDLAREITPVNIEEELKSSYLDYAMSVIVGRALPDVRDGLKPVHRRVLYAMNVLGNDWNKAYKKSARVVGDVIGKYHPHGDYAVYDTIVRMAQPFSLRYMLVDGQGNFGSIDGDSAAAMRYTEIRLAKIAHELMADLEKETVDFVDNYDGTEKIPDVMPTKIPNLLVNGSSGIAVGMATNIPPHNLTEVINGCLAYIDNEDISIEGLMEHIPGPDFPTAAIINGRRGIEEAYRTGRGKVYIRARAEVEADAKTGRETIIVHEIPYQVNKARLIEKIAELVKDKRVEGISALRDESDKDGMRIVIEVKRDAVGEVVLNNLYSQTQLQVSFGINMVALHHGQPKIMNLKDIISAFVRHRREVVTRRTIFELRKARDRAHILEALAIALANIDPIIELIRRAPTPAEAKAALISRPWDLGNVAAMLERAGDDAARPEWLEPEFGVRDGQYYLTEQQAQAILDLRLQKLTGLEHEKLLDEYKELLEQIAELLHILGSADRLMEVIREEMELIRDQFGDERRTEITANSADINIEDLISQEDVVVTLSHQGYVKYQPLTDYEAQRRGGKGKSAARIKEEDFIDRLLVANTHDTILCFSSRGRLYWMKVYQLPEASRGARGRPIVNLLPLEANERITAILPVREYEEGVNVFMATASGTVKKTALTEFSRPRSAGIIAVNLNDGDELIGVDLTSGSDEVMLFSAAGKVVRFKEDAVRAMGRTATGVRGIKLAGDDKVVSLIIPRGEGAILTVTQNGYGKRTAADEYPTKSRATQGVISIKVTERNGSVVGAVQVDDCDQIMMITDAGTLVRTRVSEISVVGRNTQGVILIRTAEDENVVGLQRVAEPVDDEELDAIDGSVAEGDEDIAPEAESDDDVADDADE
From the text: as §1, §2

[5] = target: T5, Asp87Gly mutant S. Typhimurium DNA gyrase (Salmonella typhimurium, UniProt P0A2I3+P37411, D87G); experiment: Fluoroquinolone-inhibited DNA supercoiling assay, GyrA Asp87Gly DNA gyrase; format: biochemical
T5 construct: made in house; host or cells: Escherichia coli BL21(DE3)
From the text: as §1, §2

[6] = target: T6, Asp87Asn mutant S. Typhimurium DNA gyrase (Salmonella typhimurium, UniProt P0A2I3+P37411, D87N); experiment: Fluoroquinolone-inhibited DNA supercoiling assay, GyrA Asp87Asn DNA gyrase; format: biochemical; details: read-out: IC50s ± SD, Ap87Asn (converted)
T6 construct: made in house; host or cells: Escherichia coli BL21(DE3)
From the text: as §1, §2

[7] = target: T7, Asp87Tyr mutant S. Typhimurium DNA gyrase (Salmonella typhimurium, UniProt P0A2I3+P37411, D87Y); experiment: Fluoroquinolone-inhibited DNA supercoiling assay, GyrA Asp87Tyr DNA gyrase; format: biochemical
T7 construct: made in house; host or cells: Escherichia coli BL21(DE3)
T7 sequence (P37411 whole entry D87Y, one chain of several): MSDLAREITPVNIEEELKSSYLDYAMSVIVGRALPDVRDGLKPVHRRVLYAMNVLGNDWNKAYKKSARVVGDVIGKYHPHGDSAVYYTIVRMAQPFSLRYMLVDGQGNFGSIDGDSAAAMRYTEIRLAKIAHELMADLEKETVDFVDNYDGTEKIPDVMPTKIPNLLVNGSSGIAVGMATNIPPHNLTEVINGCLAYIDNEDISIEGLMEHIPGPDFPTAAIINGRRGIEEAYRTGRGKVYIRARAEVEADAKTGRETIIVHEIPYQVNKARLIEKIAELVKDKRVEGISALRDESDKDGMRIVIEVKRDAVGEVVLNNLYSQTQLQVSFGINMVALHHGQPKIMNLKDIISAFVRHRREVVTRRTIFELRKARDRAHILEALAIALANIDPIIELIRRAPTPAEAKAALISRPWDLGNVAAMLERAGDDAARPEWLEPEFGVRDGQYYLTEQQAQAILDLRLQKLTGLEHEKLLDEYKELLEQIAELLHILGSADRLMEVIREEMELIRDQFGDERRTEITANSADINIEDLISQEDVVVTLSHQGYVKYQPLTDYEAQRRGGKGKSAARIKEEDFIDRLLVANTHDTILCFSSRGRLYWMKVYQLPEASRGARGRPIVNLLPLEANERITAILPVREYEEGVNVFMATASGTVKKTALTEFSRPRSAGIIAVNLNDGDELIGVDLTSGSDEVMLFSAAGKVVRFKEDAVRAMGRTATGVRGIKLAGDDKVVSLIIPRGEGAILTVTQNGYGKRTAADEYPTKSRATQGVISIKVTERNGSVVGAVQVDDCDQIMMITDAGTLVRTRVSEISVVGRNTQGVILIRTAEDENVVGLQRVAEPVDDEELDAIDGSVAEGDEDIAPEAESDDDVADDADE
From the text: as §1, §2

[8] = target: T8, Ser83Phe-Asp87Asn double-mutant S. Typhimurium DNA gyrase (Salmonella typhimurium, UniProt P0A2I3+P37411, D87N/S83F); experiment: Fluoroquinolone-inhibited DNA supercoiling assay, GyrA Ser83Phe-Asp87Asn DNA gyrase; format: biochemical; details: for IC50 against double-mutant DNA gyrase relative to WT: ratio IC50 double mutant / WT; for IC50: supercoiling assay, GyrA double mutant Ser83Phe-Asp87Asn, read-out: IC50s ± SD, Ser83Phe-Asp87Asn (converted)
T8 construct: made in house; host or cells: Escherichia coli BL21(DE3)
From the text: Recombinant DNA gyrase was obtained as separate subunits, GyrA and GyrB. In total, plasmids encoding nine subunits including WT GyrA and GyrB as well as seven GyrA with amino acid substitutions (Ser83Phe, Ser83Ile, Ser83Tyr, Asp87Gly, Asp87Asn, Asp87Tyr, and […]) in the quinolone resistance determining region were constructed as described in our previous study ([38]). These plasmids were introduced into Escherichia coli BL21(DE3) (Merck KGaA, Darmstadt, Germany), and protein expression was induced in the bacterial cells. A transformed E. coli was inoculated into Luria-Bertani broth supplemented with ampicillin (50 mg/L) and incubated at 37°C until the optical density value reached 0.60. Expression of GyrA and GyrB was induced by adding 1 mM isopropyl beta-D-1-thiogalactopyranoside (Wako Pure Chemical Industries Ltd, Osaka, Japan) followed by incubation at 16°C for 40 h (for GyrA), or 18°C for 13 h (for GyrB). To release the expressed protein, E. coli cells were harvested by centrifugation, suspended in a native binding buffer containing complete mini EDTA-free (Roche Applied Science, Mannheim, Germany), and then sonicated at a 30% duty cycle with 10 cycles of 40 s on and 40 s off (Sonifier 250; Branson, Danbury, CT). The recombinant DNA gyrase subunits were purified by column chromatography using Ni-NTA agarose resin (Thermo Fisher Scientific, Inc., Waltham, MA) and dialyzed against DNA gyrase dilution buffer [50 mM Tris-HCl, pH 7.5; 100 mM KCl, 2 mM dithiothreitol (DTT), 1 mM EDTA]. The obtained protein was mixed with glycerol to prevent denaturation and stored in small aliquots at −80°C for future use. The protein purity was assessed by sodium dodecyl sulfate-polyacrylamide gel electrophoresis (SDS-PAGE) (ATTO, Tokyo, Japan) as shown in Fig. 7.
The reaction mixture was incubated at 37°C for 60 min and then the reaction was halted by adding 8 µL of stop solution (5% SDS, 25% glycerol, and 0.25 mg/mL of bromophenol blue) ([45]). Next, 10 µL of each reaction mixture was subjected to gel electrophoresis for 80 min at 50 mA in 1.2% agarose gel in 1×Tris-acetate-EDTA (TAE) buffer. Subsequently, the gel was stained with 0.5 µg/mL of ethidium bromide for 30 min. The presence of supercoiled DNA can be easily distinguished as a separated band under the UV light. The amount of supercoiled DNA was quantified by its intensity using ImageJ, the digital image processing software (https://imagej.nih.gov/ij/download.html).

[9] = target: T1, WT S. Typhimurium DNA gyrase; experiment: Fluoroquinolone-mediated DNA cleavage assay, WT DNA gyrase; format: biochemical
From the text: as §1, with “CT).” for “CT). The recombinant DNA gyrase subunits were purified by column chromatography using Ni-NTA agarose resin (Thermo Fisher Scientific, Inc., Waltham, MA) and dialyzed against DNA gyrase dilution buffer [50 mM Tris-HCl, pH 7.5; 100 mM KCl, 2 mM dithiothreitol (DTT), 1 mM EDTA].”, “7. […]” for “7.”

[10] = target: T9, GryA-Ser83Ile S. Typhimurium DNA gyrase (Salmonella typhimurium, UniProt P0A2I3+P37411, S83I); experiment: Fluoroquinolone-mediated DNA cleavage assay, GyrA Ser83Ile DNA gyrase; format: biochemical
T9 construct: made in house; host or cells: Escherichia coli BL21(DE3)
From the text: as §1, with “CT).” for “CT). The recombinant DNA gyrase subunits were purified by column chromatography using Ni-NTA agarose resin (Thermo Fisher Scientific, Inc., Waltham, MA) and dialyzed against DNA gyrase dilution buffer [50 mM Tris-HCl, pH 7.5; 100 mM KCl, 2 mM dithiothreitol (DTT), 1 mM EDTA].”, “7. […]” for “7.”

[11] = test system: S. Typhimurium NBRC 13245; experiment: microbe, parasite or virus in culture; format: cell-based, Salmonella Typhimurium; details: micro-broth dilution, 37°C, 16 h; for MIC: Salmonella enterica, read-out: MIC ± SD, S. Typhimurium
Procedure: (§3) A suspension containing approximately 5 × 10^5 CFU/mL of each Salmonella strain was transferred into 96-well plate containing serially diluted fluoroquinolones and incubated at 37°C for 16 h.

S. Enteritidis NBRC 3313 = experiment: microbe, parasite or virus in culture; format: cell-based, Salmonella Enteritidis; details: micro-broth dilution, 37°C, 16 h; for MIC: Salmonella enterica, read-out: MIC ± SD, S. Enteritidis
Procedure: as §3

T1 sequence (P37411 whole entry, one chain of several): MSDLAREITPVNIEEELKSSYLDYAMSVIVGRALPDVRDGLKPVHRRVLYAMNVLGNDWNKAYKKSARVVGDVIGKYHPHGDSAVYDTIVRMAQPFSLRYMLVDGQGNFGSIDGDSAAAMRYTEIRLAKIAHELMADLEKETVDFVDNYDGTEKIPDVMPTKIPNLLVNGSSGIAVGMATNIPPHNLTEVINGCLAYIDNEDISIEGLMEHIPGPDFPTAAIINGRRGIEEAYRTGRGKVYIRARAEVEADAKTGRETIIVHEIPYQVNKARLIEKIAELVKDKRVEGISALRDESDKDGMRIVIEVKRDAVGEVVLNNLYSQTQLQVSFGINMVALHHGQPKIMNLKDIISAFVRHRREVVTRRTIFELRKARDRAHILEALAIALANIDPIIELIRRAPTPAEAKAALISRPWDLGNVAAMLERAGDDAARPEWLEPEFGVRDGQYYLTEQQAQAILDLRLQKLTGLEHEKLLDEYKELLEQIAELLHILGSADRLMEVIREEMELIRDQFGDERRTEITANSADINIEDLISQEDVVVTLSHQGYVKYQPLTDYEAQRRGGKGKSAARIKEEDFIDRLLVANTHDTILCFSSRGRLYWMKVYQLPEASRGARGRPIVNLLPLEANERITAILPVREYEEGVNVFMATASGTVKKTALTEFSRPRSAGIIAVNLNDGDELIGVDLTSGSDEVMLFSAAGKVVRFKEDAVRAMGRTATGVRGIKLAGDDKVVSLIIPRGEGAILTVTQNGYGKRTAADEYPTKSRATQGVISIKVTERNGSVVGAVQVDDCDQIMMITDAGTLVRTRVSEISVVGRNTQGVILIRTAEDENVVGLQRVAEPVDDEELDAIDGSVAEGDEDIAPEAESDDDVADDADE

Row | Structure (SMILES) | IC50 [1] [nM] | IC50 [2] [nM] | IC50 [3] [nM] | IC50 [4] [nM] | IC50 [5] [nM] | IC50 [6] [nM] | IC50 [7] [nM] | IC50 against double-mutant DNA gyrase relative to WT [8] [fold] | IC50 [8] [µM] | CC25s, WT (concentration that induces 25% of maximum DNA cleavage) [9] [µg/mL] | CC25s, Ser83Ile (concentration that induces 25% of maximum DNA cleavage) [10] [µg/mL] | MIC [11] [µg/mL] | MIC ± SD, S. Typhimurium [11] [µg/mL] | MIC (S. Enteritidis NBRC 3313) [µg/mL] | MIC ± SD, S. Enteritidis (S. Enteritidis NBRC 3313) [µg/mL]
1 | Nc1nc(-n2cc(C(=O)O)c(=O)c3cc(F)c(N4CC(O)C4)c(Cl)c32)c(F)cc1F [WQ-3034] | 45.4 | 1910 | 59 | 495 | 54.5 | 1020 | 68.1 | 59 | 2.68 | 0.16 | 0.58 | 0.08 (≈ 0.182 µM) | 0.08 (≈ 0.182 µM) | 0.016 (≈ 0.0363 µM) | 0.16 (≈ 0.363 µM)
2 | Cc1c(N2CC(O)C2)c(F)cc2c(=O)c(C(=O)O)cn(-c3nc(N)c(F)cc3F)c12 [WQ-3154] | 61.9 | 2750 | 71.4 | 592 | 83.3 | 2080 | 80.9 | 70 | 4.31 |  |  | 0.08 (≈ 0.19 µM) | 0.08 (≈ 0.19 µM) | 0.08 (≈ 0.19 µM) | 0.08 (≈ 0.19 µM)
3 | Cc1c(N2CC(NC(C)C)C2)c(F)cc2c(=O)c(C(=O)O)cn(-c3nc(N)c(F)cc3F)c12 [WQ-3810] | 71.5 | 2510 | 113 | 897 | 69.3 | 1290 | 71.5 | 110 | 7.91 |  |  | 0.04 (≈ 0.0867 µM) | 0.04 (≈ 0.0867 µM) | 0.04 (≈ 0.0867 µM) | 0.04 (≈ 0.0867 µM)
